Laboratory results from PubChem BioAssay AID256 (DTP/NCI, 2004).
Toxic doses and inconclusive results are not listed. How the source made its calls: active means survival T/C of 150% or more; inactive means T/C below 125% in these data.

Tested on: CD2F1 mice, L1210 leukemia ip, survival T/C
Assay: NCI In Vivo Anticancer Drug Screen. Data for tumor model L1210 Leukemia (intraperitoneal) in CD2F1 (CDF1) mice
Conditions: endpoint: mean survival time, higher = longer survival
Procedure, shortened: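 In this screen, transplantable tumors were grown in mice given either the compound or its vehicle. Results were expressed as the treated measurement relative to the control measurement.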

[1] = dose: 100.0 mg/kg/injection, schedule: Q01DX001 (ip), vehicle: saline
[2] = dose: 200.0 mg/kg/injection, schedule: Q01DX001 (ip), vehicle: saline
[3] = dose: 200.0 mg/kg/injection, schedule: Q04DX003 (ip), vehicle: saline with Tween-80
[4] = dose: 25.0 mg/kg/injection, schedule: Q04DX003 (ip), vehicle: saline
[5] = dose: 400.0 mg/kg/injection, schedule: Q01DX001 (ip), vehicle: saline

Measured: T/C

O=c1[nH]c(=O)n(C2CC(O)C(CO)O2)cc1/C=C/c1ccccc1 (centres undefined)
inactive: dose: 6.25 mg/kg/injection, schedule: Q01DX005 (ip), vehicle: distilled water + Tween-80 97 % of control | dose: 12.5 mg/kg/injection, schedule: Q01DX005 (ip), vehicle: distilled water + Tween-80 103 % of control | dose: 25.0 mg/kg/injection, schedule: Q01DX005 (ip), vehicle: distilled water + Tween-80 95 % of control | dose: 50.0 mg/kg/injection, schedule: Q01DX005 (ip), vehicle: distilled water + Tween-80 95 % of control | dose: 100.0 mg/kg/injection, schedule: Q01DX005 (ip), vehicle: distilled water + Tween-80 96 % of control

c1ccc2[nH]c(C3CCCCN3)cc2c1 (centres undefined)
inactive: [1] 101 % of control | [2] 96 % of control

COc1ccc(/C=C(/C#N)c2ccccc2)cc1
inactive: dose: 100.0 mg/kg/injection, schedule: Q04DX003 (ip), vehicle: saline with Tween-80 95 % of control | [3] 93 % of control | dose: 400.0 mg/kg/injection, schedule: Q04DX003 (ip), vehicle: saline with Tween-80 90 % of control

COc1cc(C[C@H]2c3cc(OC)c(OC)cc3CCN2C)c(Oc2cc3c(cc2OC)-c2c(OC)c(OC)cc4c2[C@H](C3)N(C)CC4)cc1OC
inactive: dose: 2.5 mg/kg/injection, schedule: Q03HX016 (ip), vehicle: saline 92 % of control | dose: 2.5 mg/kg/injection, schedule: Q03HX024 (ip), vehicle: saline 94 % of control | dose: 5.0 mg/kg/injection, schedule: Q03HX008 (ip), vehicle: saline 95 % of control | dose: 5.0 mg/kg/injection, schedule: Q03HX016 (ip), vehicle: saline 93 % of control | dose: 5.0 mg/kg/injection, schedule: Q03HX024 (ip), vehicle: saline 91 % of control | dose: 6.25 mg/kg/injection, schedule: Q01DX009 (ip), vehicle: saline 95 % of control | dose: 10.0 mg/kg/injection, schedule: Q03HX008 (ip), vehicle: saline 93 % of control | dose: 10.0 mg/kg/injection, schedule: Q03HX016 (ip), vehicle: saline 91 % of control | dose: 10.0 mg/kg/injection, schedule: Q03HX024 (ip), vehicle: saline 92 % of control | dose: 12.5 mg/kg/injection, schedule: Q01DX009 (ip), vehicle: saline 94 % of control | dose: 12.5 mg/kg/injection, schedule: Q01DX009 (oral), vehicle: saline 98 % of control | dose: 20.0 mg/kg/injection, schedule: Q03HX008 (ip), vehicle: saline 95 % of control | dose: 20.0 mg/kg/injection, schedule: Q03HX016 (ip), vehicle: saline 95 % of control | dose: 20.0 mg/kg/injection, schedule: Q03HX024 (ip), vehicle: saline 96 % of control | dose: 25.0 mg/kg/injection, schedule: Q01DX009 (ip), vehicle: saline 94 % of control | dose: 25.0 mg/kg/injection, schedule: Q01DX009 (oral), vehicle: saline 101 % of control | [4] 98 % of control | dose: 25.0 mg/kg/injection, schedule: Q08DX002 (ip), vehicle: saline 92 % of control | dose: 40.0 mg/kg/injection, schedule: Q03HX008 (ip), vehicle: saline 97 % of control | dose: 40.0 mg/kg/injection, schedule: Q03HX016 (ip), vehicle: saline 93 % of control | dose: 40.0 mg/kg/injection, schedule: Q03HX024 (ip), vehicle: saline 89 % of control | dose: 50.0 mg/kg/injection, schedule: Q01DX001 (ip), vehicle: saline 87 % of control | dose: 50.0 mg/kg/injection, schedule: Q01DX009 (ip), vehicle: saline 94 % of control | dose: 50.0 mg/kg/injection, schedule: Q01DX009 (oral), vehicle: saline 96 % of control | dose: 50.0 mg/kg/injection, schedule: Q04DX003 (ip), vehicle: saline 98 % of control | dose: 50.0 mg/kg/injection, schedule: Q08DX002 (ip), vehicle: saline 94 % of control | dose: 80.0 mg/kg/injection, schedule: Q03HX008 (ip), vehicle: saline 98 % of control | [1] 87 % of control | dose: 100.0 mg/kg/injection, schedule: Q01DX001 (oral), vehicle: saline 101 % of control | dose: 100.0 mg/kg/injection, schedule: Q01DX009 (ip), vehicle: saline 94 % of control | dose: 100.0 mg/kg/injection, schedule: Q01DX009 (oral), vehicle: saline 106 % of control | dose: 100.0 mg/kg/injection, schedule: Q04DX003 (ip), vehicle: saline 95 % of control | dose: 100.0 mg/kg/injection, schedule: Q08DX002 (ip), vehicle: saline 92 % of control | dose: 200.0 mg/kg/injection, schedule: Q01DX001 (oral), vehicle: saline 101 % of control | dose: 200.0 mg/kg/injection, schedule: Q01DX009 (oral), vehicle: saline 109 % of control | dose: 200.0 mg/kg/injection, schedule: Q04DX003 (ip), vehicle: saline 105 % of control | dose: 200.0 mg/kg/injection, schedule: Q08DX002 (ip), vehicle: saline 94 % of control | [5] 89 % of control | dose: 400.0 mg/kg/injection, schedule: Q01DX001 (oral), vehicle: saline 103 % of control | dose: 400.0 mg/kg/injection, schedule: Q08DX002 (ip), vehicle: saline 90 % of control | dose: 800.0 mg/kg/injection, schedule: Q01DX001 (ip), vehicle: saline 90 % of control | dose: 800.0 mg/kg/injection, schedule: Q01DX001 (oral), vehicle: saline 104 % of control | dose: 1600.0 mg/kg/injection, schedule: Q01DX001 (oral), vehicle: saline 102 % of control

O=[N+]([O-])c1ccc(Nc2cccc(Cl)c2)c([N+](=O)[O-])c1
inactive: [3] 87 % of control

O=C(Nc1ccc(Oc2ccc(Cl)c(Cl)c2)c(Cl)c1)Nc1cc(Cl)c(Cl)cc1S(=O)(=O)O
inactive: dose: 100.0 mg/kg/injection, schedule: Q01DX001 (ip), vehicle: saline sonified 96 % of control | dose: 100.0 mg/kg/injection, schedule: Q01DX009 (ip), vehicle: saline with Tween-80 97 % of control | dose: 200.0 mg/kg/injection, schedule: Q01DX001 (ip), vehicle: saline sonified 93 % of control | dose: 400.0 mg/kg/injection, schedule: Q01DX001 (ip), vehicle: saline sonified 96 % of control

CCOCC(C)(CO)CC(C)CO (centres undefined)
inactive: [1] 101 % of control | [2] 104 % of control | [5] 103 % of control

ClCC(CCl)N1CCCCC1
inactive: dose: 6.25 mg/kg/injection, schedule: Q01DX001 (ip), vehicle: saline 103 % of control | dose: 6.25 mg/kg/injection, schedule: Q01DX009 (ip), vehicle: saline sonified 102 % of control | dose: 6.25 mg/kg/injection, schedule: Q04DX003 (ip), vehicle: saline 101 % of control | dose: 12.5 mg/kg/injection, schedule: Q01DX001 (ip), vehicle: saline 104 % of control | dose: 12.5 mg/kg/injection, schedule: Q01DX009 (ip), vehicle: saline sonified 109 % of control | dose: 12.5 mg/kg/injection, schedule: Q04DX003 (ip), vehicle: saline 104 % of control | dose: 25.0 mg/kg/injection, schedule: Q01DX001 (ip), vehicle: saline 107 % of control | [4] 106 % of control
